PMC8781192, “An In Silico and an In Vitro Inhibition Analysis of Glycogen Phosphorylase by Flavonoids, Styrylchromones, and Pyrazoles” (Nutrients, 2022)
Read-outs that look alike come from different tables or passages of the source.

Columns and labels:
rabbit mGPa [1] = target: T1, rabbit mGPa (Oryctolagus cuniculus, UniProt P00489); assay: In vitro glycogen phosphorylase inhibition assay (direction of glycogen synthesis, colorimetric phosphate); type: biochemical; details: for inhibition at 50 µM: at 50 μM (highest concentration tested)
T1 construct: purchased Creative Enzymes
T1 sequence (P00489 2-843 limits assumed): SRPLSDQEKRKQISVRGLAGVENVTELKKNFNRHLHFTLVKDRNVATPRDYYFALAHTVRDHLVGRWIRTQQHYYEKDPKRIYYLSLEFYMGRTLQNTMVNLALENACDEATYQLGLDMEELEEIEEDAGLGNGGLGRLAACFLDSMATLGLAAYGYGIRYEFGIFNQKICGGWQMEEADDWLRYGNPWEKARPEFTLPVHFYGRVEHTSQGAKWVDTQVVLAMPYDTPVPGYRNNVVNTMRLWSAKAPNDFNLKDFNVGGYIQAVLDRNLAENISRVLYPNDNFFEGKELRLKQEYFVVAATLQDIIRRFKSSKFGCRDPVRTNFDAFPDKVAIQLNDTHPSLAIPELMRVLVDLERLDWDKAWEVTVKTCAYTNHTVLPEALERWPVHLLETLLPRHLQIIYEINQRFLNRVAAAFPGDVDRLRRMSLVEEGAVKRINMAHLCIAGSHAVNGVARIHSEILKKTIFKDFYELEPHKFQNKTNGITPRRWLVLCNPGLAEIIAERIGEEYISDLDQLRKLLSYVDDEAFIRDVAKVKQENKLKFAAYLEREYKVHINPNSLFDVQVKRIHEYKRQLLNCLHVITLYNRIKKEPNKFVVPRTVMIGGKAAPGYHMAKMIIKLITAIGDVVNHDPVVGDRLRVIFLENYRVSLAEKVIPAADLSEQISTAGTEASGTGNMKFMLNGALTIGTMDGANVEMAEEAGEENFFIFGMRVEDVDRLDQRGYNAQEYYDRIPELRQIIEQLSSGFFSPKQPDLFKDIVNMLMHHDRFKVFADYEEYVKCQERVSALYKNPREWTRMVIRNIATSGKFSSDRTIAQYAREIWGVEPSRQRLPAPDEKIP
Description: The GP activity was measured using a previously optimized and validated method. In each assay, GP activity was measured by the direction of glycogen synthesis, which involved monitoring the colorimetric determination of inorganic phosphate deriving from glucose 1-phosphate. […] The enzymatic reaction was then started with the addition of a 50 mM HEPES buffer solution, with a pH of 7.2, containing 100 mM KCl, 2.5 mM MgCl2, 0.25 mM glucose 1-phosphate, and 0.25 mg/mL glycogen incubated for 30 min at 37 °C. After this incubation time, the reagent for colorimetric phosphate quantitation, BIOMOL® Green, was added to the reaction mixture. The reaction was monitored in a microplate reader (Synergy HT, BioTek Instruments, Winooski, VT, USA) at 620 nm.

rabbit mGPa [2] = target: T1, rabbit mGPa; assay: In vitro effect of glucose on inhibitor potency (GPa inhibition with 0, 5, 10 mM glucose); type: biochemical; details: for IC50: mean ± SEM; for inhibition at 40 µM: at 40 μM (highest concentration tested), read-out: GPa inhibitory activity (%)
Description: The method was performed as described in Section 2.2, with slight modifications. […] The enzymatic reaction was then started with the addition of a 50 mM HEPES buffer solution with a pH of 7.2 containing 100 mM KCl, 2.5 mM MgCl2, 0.25 mM glucose 1-phosphate, and 0.25 mg/mL glycogen. This buffer was used without glucose, or it was enriched with 5 and 10 mM of glucose and was incubated for 30 min at 37 °C in the reaction mixture. After this incubation time, BIOMOL® Green was added, and the reaction was monitored in a microplate reader (Synergy HT, BioTek Instruments, Winooski, VT, USA) at 620 nm.

rabbit mGPa [3] = target: T1, rabbit mGPa; design: method as in PMID 16317787; details: direction of glycogen breakdown; cited from earlier work
GPb = tested on: GPb; design: method as in PMID 16317787; details: direction of glycogen breakdown; cited from earlier work
[4] = no glucose, mean ± SEM, read-out: GPa IC50 value
[5] = mean ± SEM, read-out: GPa inhibitory activity (%)
[6] = Table S2 summary of activities, read-out: IC50
[7] = 0 mM of glucose, read-out: GPa IC50 value
[8] = 5 mM of glucose, read-out: GPa IC50 value
[9] = 10 mM of glucose, read-out: GPa IC50 value

| SMILES | inhibition at 50 µM (rabbit mGPa [1]; [5]) | other results |
| --- | --- | --- |
| CN(C)C(=O)[C@H](O)[C@H](Cc1ccccc1)NC(=O)c1cc2cc(Cl)ccc2[nH]1 [CP-91149, 5-chloro-N-[(1S,2R)-3-(dimethylamino)-2-hydroxy-3-oxo-1-(phenylmethyl)propyl]-1H-indole-2-carboxamide, reference compound] | – | IC50 (rabbit mGPa [1]; [4]): 0.58 ± 0.09 µM; IC50 (rabbit mGPa [2]; GPa IC50 value, 0 mM of glucose): 0.58 ± 0.09 µM; IC50 (rabbit mGPa [2]; GPa IC50 value, 5 mM of glucose): 0.39 ± 0.05 µM; IC50 (rabbit mGPa [2]; GPa IC50 value, 10 mM of glucose): 0.22 ± 0.04 µM |
| Oc1ccccc1-c1n[nH]cc1/C=C/c1ccccc1 [Compound 1] | < 30% | – |
| Oc1ccccc1-c1n[nH]cc1/C=C/c1ccc(Cl)cc1 [Compound 2] | < 30% | – |
| COc1ccc(/C=C/c2c[nH]nc2-c2ccccc2O)cc1 [Compound 3] | < 30% | – |
| Oc1ccccc1-c1n[nH]cc1/C=C/c1ccccc1C(F)(F)F [Compound 4] | < 30% | – |
| CCCCCCCCCCn1cc(/C=C/c2ccccc2)c(-c2ccccc2O)n1 [Compound 5] | < 30% | – |
| CCCCCCCCCCCCn1cc(/C=C/c2ccccc2)c(-c2ccccc2O)n1 [Compound 6] | < 30% | – |
| CCCCCCCCCCCCn1cc(/C=C/c2ccc(Cl)cc2)c(-c2ccccc2O)n1 [Compound 7] | < 30% | – |
| O=[N+]([O-])c1cccc(/C=C\c2c[nH]nc2-c2ccccc2O)c1 [Compound 8] | < 30% | – |
| COc1ccc(-c2n[nH]cc2/C=C\c2ccc([N+](=O)[O-])cc2)c(O)c1 [Compound 9] | < 30% | – |
| Oc1ccccc1-c1cc(/C=C/c2ccccc2)[nH]n1 [Compound 10] | < 30% | – |
| Oc1ccccc1-c1cc(/C=C/c2ccc(Cl)cc2)[nH]n1 [Compound 11] | < 30% | – |
| COc1ccc(/C=C/c2cc(-c3ccccc3O)nn2-c2ccccc2)cc1 [Compound 12] | < 30% | – |
| COc1ccc(/C=C/c2cc(-c3ccccc3O)nn2S(=O)(=O)c2ccc(C)cc2)cc1 [Compound 13] | < 30% | – |
| Cc1ccc(S(=O)(=O)Oc2ccccc2-c2cc(/C=C/c3ccccc3)n(S(=O)(=O)c3ccc(C)cc3)n2)cc1 [Compound 14] | < 30% | – |
| COc1ccc(/C=C/c2cc(-c3ccccc3OS(=O)(=O)c3ccc(C)cc3)nn2S(=O)(=O)c2ccc(C)cc2)cc1 [Compound 15] | < 30% | – |
| O=c1cc(/C=C/c2ccccc2)oc2cc(O)ccc12 [Compound 16] | < 30% | – |
| O=c1cc(/C=C/c2ccc(O)cc2)oc2cc(O)ccc12 [Compound 17] | < 30% | – |
| O=c1cc(/C=C/c2ccc(O)c(O)c2)oc2ccccc12 [Compound 18] | < 30% | – |
| O=c1cc(/C=C/c2ccc(O)c(O)c2)oc2cc(O)ccc12 [Compound 19] | < 30% | – |

| SMILES | inhibition at 50 µM (rabbit mGPa [1]; [5]) | other results |
| --- | --- | --- |
| O=c1cc(/C=C/c2ccc(O)c(O)c2)oc2cccc(O)c12 [Compound 20] | < 30% | – |
| O=c1cc(/C=C/c2ccccc2)oc2cc(O)cc(O)c12 [Compound 21] | < 50% | – |
| O=c1cc(/C=C/c2ccc(O)cc2)oc2cc(O)cc(O)c12 [Compound 22] | < 50% | – |
| O=c1cc(/C=C/c2ccc(O)c(O)c2)oc2cc(O)cc(O)c12 [Compound 23] | – | IC50 (rabbit mGPa [1]; [4]): 31.7 ± 2.4 µM |
| O=c1c(O)c(/C=C/c2ccc(O)c(O)c2)oc2c(O)c(O)ccc12 [Compound 24] | – | IC50 (rabbit mGPa [1]; [6]): > 25 µM; inhibition at 25 µM (rabbit mGPa [1]; at 25 μM (highest concentration tested), mean ± SEM, read-out: GPa inhibitory activity (%)): 33.7 ± 6.5% |
| COc1cc(OC)c2c(=O)cc(/C=C/c3ccc(O)c(O)c3)oc2c1 [Compound 25] | < 30% | – |
| COc1cc(OC)c2c(=O)cc(/C=C/c3ccc(OC)c(OC)c3)oc2c1 [Compound 26] | 42.2 ± 5.6% | – |
| COc1ccc(/C=C/c2cc(=O)c3ccc(OC)c(OC)c3o2)cc1OC [Compound 27] | < 30% | – |
| COc1ccc2c(=O)cc(/C=C/c3ccc(OC)c(OC)c3)oc2c1 [Compound 28] | < 30% | – |
| O=c1cc(/C=C/C=C/c2ccc(O)c(O)c2)oc2cc(O)ccc12 [Compound 32] | – | IC50 (rabbit mGPa [1]; [4]): 16.7 ± 1.5 µM; IC50 (rabbit mGPa [2]; [7]): 16.7 ± 1.5 µM; IC50 (rabbit mGPa [2]; [8]): 13.4 ± 1.6 µM; IC50 (rabbit mGPa [2]; [9]): 10.8 ± 1.2 µM |
| COc1cc(O)c2c(=O)cc(/C=C/C=C/c3ccc(O)c(O)c3)oc2c1 [Compound 33] | – | IC50 (rabbit mGPa [1]; [4]): 15.9 ± 1.1 µM; IC50 (rabbit mGPa [2]; [7]): 15.9 ± 1.1 µM; inhibition at 40 µM (rabbit mGPa [2]; 5 mM of glucose): 53.9 ± 2.5%; inhibition at 40 µM (rabbit mGPa [2]; 10 mM of glucose): < 30% |
| O=c1cc(-c2ccccc2)oc2cc(O)ccc12 [Compound 36] | < 30% | – |
| O=c1cc(-c2ccc(O)c(O)c2)oc2cccc(O)c12 [Compound 41] | < 30% | IC50 (rabbit mGPa [1]; [6]): > 50 µM |
| O=c1c(O)c(-c2ccc(O)c(O)c2)oc2cc(O)cc(O)c12 [Compound 45, Quercetin] | < 30% | IC50 (rabbit mGPa [1]; [6]): > 50 µM |
| O=c1cc(-c2ccccc2)oc2c(O)c(O)cc(O)c12 [Compound 46, Norwogonin] | – | IC50 (rabbit mGPa [1]; [4]): 13.2 ± 1.4 µM; IC50 (rabbit mGPa [2]; [7]): 13.2 ± 1.4 µM; IC50 (rabbit mGPa [2]; [8]): 8.9 ± 1 µM; IC50 (rabbit mGPa [2]; [9]): 3.7 ± 0.5 µM |
| O=c1cc(-c2ccccc2)oc2cc(O)c(O)c(O)c12 [Compound 47, Baicalein] | – | IC50 (rabbit mGPa [1]; [4]): 23.5 ± 2.9 µM; IC50 (rabbit mGPa [3]): 11.2 ± 1.5 µM; IC50 (GPb): 10.2 ± 1.2 µM |
| O=C(O)[C@H]1O[C@@H](Oc2cc3oc(-c4ccccc4)cc(=O)c3c(O)c2O)[C@H](O)[C@@H](O)[C@@H]1O [Compound 49, Baicalin] | – | IC50 (rabbit mGPa [1]; [4]): 20.5 ± 2.5 µM |
| O=c1c(O)c(-c2ccc(O)c(O)c2)oc2cc(O)c(O)c(O)c12 [Compound 50, Quercetagetin] | < 30% | IC50 (rabbit mGPa [1]; [6]): > 50 µM |
| COc1cc2oc(-c3ccccc3)cc(=O)c2c(O)c1O [Compound 51, Baicalein-7-methylether] | – | IC50 (rabbit mGPa [1]; [4]): 22.6 ± 0.4 µM |

Second part, led by results:

| inhibition at 50 µM (rabbit mGPa [1]; [5]) | SMILES | other results |
| --- | --- | --- |
| < 30% | COc1ccc(/C=C/c2cc(=O)c3c(OC)cccc3o2)cc1OC [Compound 29] | – |
| < 30% | O=c1cc(/C=C/C=C/c2ccc(O)c(O)c2)oc2ccccc12 [Compound 30] | – |
| < 30% | O=c1cc(/C=C/C=C/c2ccc(O)c(O)c2)oc2cccc(O)c12 [Compound 31] | – |
| 51.9 ± 1.8% | COc1ccc2c(=O)cc(/C=C/C=C/c3ccc(O)c(O)c3)oc2c1 [Compound 34] | – |
| 35.8 ± 4.6% | COc1ccc2c(=O)cc(/C=C/C=C/c3ccc(OC)c(OC)c3)oc2c1 [Compound 35] | – |
| < 30% | O=c1cc(-c2ccc(O)cc2)oc2cc(O)ccc12 [Compound 37] | – |
| < 30% | O=c1cc(-c2ccc(O)c(O)c2)oc2ccccc12 [Compound 39] | IC50 (rabbit mGPa [1]; [6]): > 50 µM |
| < 30% | O=c1cc(-c2ccc(O)c(O)c2)oc2cc(O)ccc12 [Compound 40] | IC50 (rabbit mGPa [1]; [6]): > 50 µM |
| 35.7 ± 2.1% | O=c1cc(-c2ccc(O)cc2)oc2cc(O)cc(O)c12 [Compound 42, Apigenin] | – |
| < 30% | O=c1cc(-c2ccc(O)c(O)c2)oc2cc(O)cc(O)c12 [Compound 43, Luteolin] | IC50 (rabbit mGPa [1]; [6]): > 50 µM |
| < 30% | O=c1c(O)c(-c2ccccc2)oc2cc(O)cc(O)c12 [Compound 44, Galangin] | – |
| < 30% | O=c1cc(-c2ccc(O)cc2)oc2cc(O)c(O)c(O)c12 [Compound 48, Scutellarein] | IC50 (rabbit mGPa [1]; [6]): > 50 µM |
| < 30% | COc1cc2oc(-c3ccccc3)cc(=O)c2c(OC)c1OC [Compound 52, Baicalein-5,6,7-trimethylether] | – |
